Data: US9533983B2, “Antiplatelet agent” (Mitsubishi Tanabe Pharma Corporation, priority 2009, dated 2017)

Columns and labels:
[1] = system: Collagen-Induced Platelet Aggregation; assay: Platelet aggregation inhibitory activity: collagen-induced platelet aggregation in platelet rich plasma; format: cell-based; settings: Cavia porcellus, guinea pig PRP
Protocol: (§1) A blood of a guinea pig was sampled by using a 1/10 volume of a 3.8% sodium citrate as a platelet aggregation inhibitor, and a platelet rich plasma (PRP) was separated by centrifuging the blood sample at 1100 rpm for 10 min. After fractionating the PRP in the upper layer, the lower layer was centrifuged at 3000 rpm for 10 min to fractionate the platelet poor plasma (PPP). To 100 μL of PRP, a 1 μL solution of each compound was added, and after still standing at 37° C. for 1 min, the mixture was stirred at 37° C. for 1 min by a stirrer. Then, 11 μL of collagen, ristocetin, or ADP was added thereto to induce the platelet aggregation. The platelet aggregation ability was measured by using the mCM hematolaser 313M (L-M-S Inc.). Based on the assumption that a light transmittance of PPP corresponds to a 100% coagulation value, an aggregation rate at each concentration of the compound was determined, then, an IC50 value was calculated therefrom.
[Platelet Aggregation Inhibitory Activities: Collagen-Induced Platelet Aggregation]

[2] = system: Ristocetin-Induced Platelet Aggregation; assay: Platelet aggregation inhibitory activity: ristocetin-induced platelet aggregation in platelet rich plasma; format: cell-based; settings: Cavia porcellus, guinea pig PRP
Protocol: as §1
[Platelet Aggregation Inhibitory Activities: Ristocetin-Induced Platelet Aggregation]

Row | Structure (SMILES) | IC50 [1] | IC50 [2]
1 | COc1ccc(-n2c(-c3cccc(F)n3)nc3cc(C(F)(F)F)ccc32)nn1 [Example 2, 2-(6-fluoropyridin-2-yl)-1-(6-methoxypyridazin-3-yl)-5-(trifluoromethyl)-1H-benzimidazole] | 180 nM | 92 nM
2 | CNc1ccc(-n2c(-c3ccccn3)nc3cc(C(F)(F)F)cnc32)cn1 [Example 5, N-methyl-5-[2-pyridin-2-yl-6-(trifluoromethyl)-3H-imidazo[4,5-b]pyridin-3-yl]pyridin-2-amine] | 89 nM | 
3 | CN(C)c1ccc(-n2c(-c3ccccn3)nc3cc(C(F)(F)F)cnc32)cn1 [Example 6, N,N-dimethyl-5-[2-pyridin-2-yl-6-(trifluoromethyl)-3H-imidazo[4,5-b]pyridin-3-yl]pyridin-2-amine] | 257 nM | 
4 | COc1ccc(-n2c(-c3cnn(C)c3)nc3cc(C(F)(F)F)ccc32)nn1 [Example 15, 1-(6-methoxypyridazin-3-yl)-2-(1-methyl-1H-pyrazol-4-yl)-5-(trifluoromethyl)-1H-benzimidazole] | 280 nM | 150 nM
5 | CCc1ccc2c(c1)nc(-c1ccccn1)n2-c1ccc(OC)nc1 [Example 17, 5-ethyl-1-(6-methoxypyridin-3-yl)-2-pyridin-2-yl-1H-benzimidazole] | 110 nM | 160 nM
6 | COc1ccc(-n2c(-c3ccccc3)nc3cc(C(F)(F)F)ccc32)cn1 [Example 18, 1-(6-methoxypyridin-3-yl)-2-phenyl-5-(trifluoromethyl)-1H-benzimidazole] | 490 nM | 120 nM
7 | COc1ccc(-n2c(-c3ccccn3)nc3ccc(C(F)(F)F)cc32)cn1 [Example 19] | 10400 nM | 
8 | COc1ccc(-n2c(-c3ccc(Br)cn3)nc3cc(C(F)(F)F)ccc32)cn1 [Example 20, 2-(5-bromopyridin-2-yl)-1-(6-methoxypyridin-3-yl)-5-(trifluoromethyl)-1H-benzimidazole] | 62 nM | 210 nM
9 | COc1ccc(-n2c(-c3ccccn3)nc3cccnc32)cn1 [Example 49] | 15000 nM | 
10 | Cc1ccc(-n2c(-c3ccccn3)nc3cc(C(F)(F)F)cnc32)cn1 [Example 118, 3-(6-methylpyridin-3-yl)-2-pyridin-2-yl-6-(trifluoromethyl)-3H-imidazo[4,5-b]pyridine] | 240 nM | 
11 | COc1cnc(-n2c(-c3cscn3)nc3cc(C(F)(F)F)cnc32)cn1 [Example 148, 3-(5-methoxypyrazine-2-yl)-2-(1,3-thiazol-4-yl)-6-(trifluoromethyl)-3H-imidazo[4,5-b]pyridine] | 81 nM | 
12 | COc1cnc(-n2c(-c3ccn(C)n3)nc3cc(C(F)(F)F)cnc32)cn1 [Example 153, 3-(5-methoxypyrazine-2-yl)-2-(1-methyl-1H-pyrazol-3-yl)-6-(trifluoromethyl)-3H-imidazo[4,5-b]pyridine] | 291 nM | 
13 | COc1cnc(-n2c(-c3cnc(C#N)cn3)nc3cc(C(F)(F)F)cnc32)cn1 [Example 157] | 74 nM | 
14 | COc1cnc(-n2c(-c3cn(C)nn3)nc3cc(C(F)(F)F)cnc32)cn1 [Example 164, 3-(5-methoxypyrazine-2-yl)-2-(1-methyl-1H-1,2,3-triazol-4-yl)-6-(trifluoromethyl)-3H-imidazo[4,5-b]pyridine] | 161 nM | 
15 | COc1ccc(-n2c(-c3cnn(C)c3)nc3cc(OC(F)(F)F)ccc32)nn1 [Example 166, 1-(6-methoxypyridazin-3-yl)-2-(1-methyl-1H-pyrazol-4-yl)-5-(trifluoromethoxy)-1H-benzimidazole] | 316 nM | 
16 | COc1ccc(-n2c(-c3cc(C)on3)nc3cc(OC(F)(F)F)ccc32)nn1 [Example 168, 1-(6-methoxypyridazin-3-yl)-2-(5-methylisoxazol-3-yl)-5-(trifluoromethoxy)-1H-benzimidazole] | 259 nM | 
17 | COc1cnc(-n2c(-c3ccccn3)cc3cc(C(F)(F)F)cnc32)cn1 [Example 187, 1-(5-methoxypyrazine-2-yl)-2-pyridin-2-yl-5-(trifluoromethyl)-1H-pyrrolo[2,3-b]pyridine] | 40 nM | 
18 | COc1ccc(-c2c3ccc(C(F)(F)F)cc3nn2-c2ccccn2)cn1 [Example 188, 3-(6-methoxypyridin-3-yl)-2-pyridin-2-yl-6-(trifluoromethyl)-2H-indazole] | 30 nM | 

Continued by falling IC50 [1], values first:

Row | IC50 [1] | IC50 [2] | Structure (SMILES)
19 | 4470 nM |  | COc1ccc(-n2c(-c3ccccn3)nc3ccccc32)cn1 [Example 23]
20 | 2380 nM |  | COc1ccc(-n2c(-c3ccccn3)nc3c(C(F)(F)F)cccc32)cn1 [Example 37]
21 | 790 nM |  | COc1ccc(-c2c(-c3ccc(F)cn3)nc3cc(C(F)(F)F)ccn23)cn1 [Example 191, 2-(5-fluoropyridin-2-yl)-3-(6-methoxypyridin-3-yl)-7-(trifluoromethyl)imidazo[1,2-a]pyridine]
22 | 279 nM |  | CCOc1cnc2c(c1)nc(-c1ccccn1)n2-c1ccc(OC)nc1 [Example 170, 6-ethoxy-3-(6-methoxypyridin-3-yl)-2-pyridin-2-yl-3H-imidazo[4,5-b]pyridine]
23 | 275 nM |  | CCc1nc(-c2nc3cc(C(F)(F)F)cnc3n2-c2ccc(OC)nc2)co1 [Example 172, 2-(2-ethyl-1,3-oxazol-4-yl)-3-(6-methoxypyridin-3-yl)-6-(trifluoromethyl)-3H-imidazo[4,5-b]pyridine]
24 | 268 nM |  | COc1cnc(-n2c(-c3ccccn3)nc3cc(C(F)(F)F)ccc32)cn1 [Example 161, 1-(5-methoxypyrazine-2-yl)-2-pyridin-2-yl-5-(trifluoromethyl)-1H-benzimidazole]
25 | 250 nM | 870 nM | COc1ccc(-n2c(-c3ccccn3)nc3cc(OCC4CC4)ccc32)cn1 [Example 31, 5-(cyclopropylmethoxy)-1-(6-methoxypyridin-3-yl)-2-pyridin-2-yl-1H-benzimidazole]
26 | 230 nM | 190 nM | FC(F)(F)c1ccc2c(c1)nc(-c1ccccn1)n2-c1ccccn1 [Example 12, 1,2-Dipyridin-2-yl-5-(trifluoromethyl)-1H-benzimidazole]
27 | 230 nM |  | CNc1ccc(-n2c(-c3ccc(F)cn3)nc3cc(C(F)(F)F)cnc32)cn1 [Example 149, 5-[2-(5-fluoropyridin-2-yl)-6-(trifluoromethyl)-3H-imidazo[4,5-b]pyridin-3-yl]-N-methylpyridin-2-amine]
28 | 218 nM |  | COc1ccc(-c2c(-c3ccccn3)nc3cc(C(F)(F)F)ccn23)cn1 [Example 190, 3-(6-methoxypyridin-3-yl)-2-pyridin-2-yl-7-(trifluoromethyl)imidazo[1,2-a]pyridine]
29 | 203 nM |  | COc1cnc(-n2c(-c3cnn(C)c3)nc3cc(C(F)(F)F)cnc32)cn1 [Example 165, 3-(5-methoxypyrazine-2-yl)-2-(1-methyl-1H-pyrazol-4-yl)-6-(trifluoromethyl)-3H-imidazo[4,5-b]pyridine]
30 | 190 nM | 170 nM | COc1ccc(-n2c(-c3ccccn3)nc3cc(C4CC4)ccc32)cn1 [Example 27, 5-cyclopropyl-1-(6-methoxypyridin-3-yl)-2-pyridin-2-yl-1H-benzimidazole]
31 | 150 nM | 95 nM | COc1ccc(-n2c(-c3cnc(C#N)cn3)nc3cc(C(F)(F)F)cnc32)cn1 [Example 8, 5-[3-(6-methoxypyridin-3-yl)-6-(trifluoromethyl)-3H-imidazo[4,5-b]pyridin-2-yl]pyrazine-2-carbonitrile]
32 | 150 nM | 140 nM | COc1ccc(-n2c(-c3ccc(OC)nn3)nc3cc(C(F)(F)F)ccc32)cn1 [Example 9, 2-(6-methoxypyridazin-3-yl)-1-(6-methoxypyridin-3-yl)-5-(trifluoromethyl)-1H-benzimidazole]
33 | 130 nM | 57 nM | COc1ccc(-n2c(-c3c[nH]cn3)nc3cc(C(F)(F)F)cnc32)cn1 [Example 11, 2-(1H-Imidazol-4-yl)-3-(6-methoxypyridin-3-yl)-6-(trifluoromethyl)-3H-imidazo[4,5-b]pyridine]
34 | 130 nM | 390 nM | COc1ccc(-n2c(-c3ccc(F)cn3)nc3cc(C(F)(F)F)ccc32)cn1 [Example 21, 2-(5-fluoropyridin-2-yl)-1-(6-methoxypyridin-3-yl)-5-(trifluoromethyl)-1H-benzimidazole]
35 | 125 nM |  | COc1ccc(-n2c(-c3cn(C)nn3)nc3cc(C(F)(F)F)ccc32)nn1 [Example 163, 1-(6-methoxypyridazin-3-yl)-2-(1-methyl-1H-1,2,3-triazol-4-yl)-5-(trifluoromethyl)-1H-benzimidazole]
36 | 91 nM |  | COc1ccc(-n2c(-c3ccccn3)nc3cc(OCC4CC4)cnc32)cn1 [Example 171, 6-(cyclopropylmethoxy)-3-(6-methoxypyridin-3-yl)-2-pyridin-2-yl-3H-imidazo[4,5-b]pyridine]
37 | 76 nM |  | COc1ccc(-n2c(-c3ccn(C)n3)nc3cc(OC(F)(F)F)ccc32)nn1 [Example 156, 1-(6-methoxypyridazin-3-yl)-2-(1-methyl-1H-pyrazol-3-yl)-5-(trifluoromethoxy)-1H-benzimidazole]
38 | 44 nM |  | COc1ccc(-n2c(-c3ccc(Br)cn3)nc3cc(C(F)(F)F)ccc32)nn1 [Example 35, 2-(5-bromopyridin-2-yl)-1-(6-methoxypyridazin-3-yl)-5-(trifluoromethyl)-1H-benzimidazole]
39 | 18 nM | 15 nM | COc1ccc(-n2c(-c3ccc[nH]3)nc3cc(C(F)(F)F)cnc32)cn1 [Example 10, 3-(6-methoxypyridin-3-yl)-2-(1H-pyrrol-2-yl)-6-(trifluoromethyl)-3H-imidazo[4,5-b]pyridine]
